Patent US10138227B2, “Heteroaryl substituted pyridines and methods of use” (AbbVie S.à.r.l., priority 2016, dated 2018)

Target: T1, CFTR ΔF508 mutant (Homo sapiens, UniProt P13569, DEL508-508)
T1 construct: expressed in transfected cells; host or cells: CFBE41o- cells transduced with adenoviral vectors
Test: YFP-halide influx assay for the CFTR-ΔF508 mutation
Assay type: cell-based
Details: CFBE41o- cells expressing CFTR ΔF508 and YFP reporter, forskolin 10.67 μM; for EC50: (1-F/F0) vs concentration
Text: The YFP halide influx assay measured the functionality of the cystic fibrosis Transmembrane Conductance regulator (CFTR) channels in the cystic fibrosis bronchial epithelium cell line CFBE41o-. The assay was used to evaluate the capacity of compounds to increase the open probability of existing CFTR channels in the membrane. It makes use of the observation that the yellow fluorescent protein (YFP) variant YFP H148Q, I152L, F47L has its fluorescence substantially quenched by halide ions like Cl^− and I^− (Galietta, L. J. V., Haggie, P. M., Verkman, A. S., 2001. Green fluorescent protein-based halide indicators with improved chloride and iodide affinities. FEBS Lett. 499, 220-224. doi:10.1016/S0014-5793(01)02561-3; Nagai, T., Ibata, K., Park, E. S., Kubota, M., Mikoshiba, K., Miyawaki, A., 2002. A variant of yellow fluorescent protein with fast and efficient maturation for cell-biological applications. Nat. Biotechnol. 20, 87-90. doi:10.1038/nbt0102-87).
For this purpose, CFBE410-cells were seeded in 384 well plates (3000 CFBE cells/well). One day after seeding, the CFBE cells were transduced with adenoviral vectors that direct the expression of the CFTR ΔF508 mutant and of the YFP reporter. Cells were incubated at 27° C., 5% CO2 for 24 hours so as to allow for the proper folding and migration to the membrane of the CFTR channel or treated with a CFTR modulator during 24 hours at 37° C.
The I-induced quenching of fluorescence was recorded on an immediately after injection of iodide for 2 minutes on an FDSS/μCell (Hamamatsu). The capacity of a compound to increase the channel opening was directly correlated with the decrease in fluorescence, and was expressed as (1-(fluorescence after 36 seconds (F)/fluorescence before injection (F0))) and an EC50 was derived from a (1-F/F0) vs compound concentration plot.

T1 sequence (P13569 with tags, fused parts or gaps DEL508-508): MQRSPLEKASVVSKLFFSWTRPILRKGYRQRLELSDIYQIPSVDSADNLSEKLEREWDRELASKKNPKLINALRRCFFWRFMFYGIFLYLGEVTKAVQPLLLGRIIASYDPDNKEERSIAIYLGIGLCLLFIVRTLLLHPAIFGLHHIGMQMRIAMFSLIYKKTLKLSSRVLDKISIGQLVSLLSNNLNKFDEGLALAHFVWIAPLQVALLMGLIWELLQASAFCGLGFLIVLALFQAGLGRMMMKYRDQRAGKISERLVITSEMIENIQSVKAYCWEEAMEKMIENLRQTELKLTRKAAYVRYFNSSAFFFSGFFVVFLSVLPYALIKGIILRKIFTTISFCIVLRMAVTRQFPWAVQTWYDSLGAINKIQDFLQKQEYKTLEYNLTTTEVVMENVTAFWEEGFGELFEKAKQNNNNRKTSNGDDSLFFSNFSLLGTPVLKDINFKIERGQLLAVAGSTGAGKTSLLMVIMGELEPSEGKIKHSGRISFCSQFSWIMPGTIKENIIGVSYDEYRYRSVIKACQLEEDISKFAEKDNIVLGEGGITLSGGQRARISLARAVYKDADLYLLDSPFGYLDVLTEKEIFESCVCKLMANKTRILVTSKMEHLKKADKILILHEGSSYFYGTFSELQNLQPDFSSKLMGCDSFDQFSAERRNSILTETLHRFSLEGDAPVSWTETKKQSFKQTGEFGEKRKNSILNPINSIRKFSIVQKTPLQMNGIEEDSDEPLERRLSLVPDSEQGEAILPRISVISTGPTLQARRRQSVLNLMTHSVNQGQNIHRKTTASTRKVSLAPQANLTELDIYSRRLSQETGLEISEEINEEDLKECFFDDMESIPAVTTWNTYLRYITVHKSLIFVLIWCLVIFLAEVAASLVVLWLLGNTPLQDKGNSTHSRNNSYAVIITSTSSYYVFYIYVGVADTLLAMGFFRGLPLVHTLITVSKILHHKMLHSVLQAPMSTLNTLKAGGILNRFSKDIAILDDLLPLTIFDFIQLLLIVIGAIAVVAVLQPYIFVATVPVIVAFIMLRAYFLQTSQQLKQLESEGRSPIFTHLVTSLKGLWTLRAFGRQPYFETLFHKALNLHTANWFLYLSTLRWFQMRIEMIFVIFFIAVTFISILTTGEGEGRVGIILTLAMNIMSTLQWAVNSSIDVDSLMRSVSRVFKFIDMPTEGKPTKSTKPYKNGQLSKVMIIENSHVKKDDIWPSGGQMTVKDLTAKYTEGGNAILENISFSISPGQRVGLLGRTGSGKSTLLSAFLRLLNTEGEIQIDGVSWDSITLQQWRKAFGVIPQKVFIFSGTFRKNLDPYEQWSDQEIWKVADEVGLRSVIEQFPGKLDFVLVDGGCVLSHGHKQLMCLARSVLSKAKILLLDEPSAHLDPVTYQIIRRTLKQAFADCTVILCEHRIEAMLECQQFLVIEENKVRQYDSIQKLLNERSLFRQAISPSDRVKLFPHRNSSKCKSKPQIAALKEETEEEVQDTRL

% Activation	EC50	SMILES
86.03%	78.1 nM	Nc1cc(S(=O)(=O)c2ccc(OC(F)(F)F)cc2)cnc1-c1nnco1 [Compound 6, 2-(1,3,4-oxadiazol-2-yl)-5-[4-(trifluoromethoxy)benzene-1-sulfonyl]pyridin-3-amine]
109.69%	5.8 nM	Nc1cc(S(=O)(=O)c2ccc(C(F)(F)F)cc2)cnc1-c1nnc(CO)o1 [Compound 7, (5-{3-amino-5-[4-(trifluoromethyl)benzene-1-sulfonyl]pyridin-2-yl}-1,3,4-oxadiazol-2-yl)methanol]
93.73%	300 nM	NC(=O)c1nnc(-c2ncc(S(=O)(=O)c3ccc(OC(F)(F)F)cc3)cc2N)o1 [Compound 8, 5-{3-amino-5-[4-(trifluoromethoxy)benzene-1-sulfonyl]pyridin-2-yl}-1,3,4-oxadiazole-2-carboxamide]
104.65%	96.7 nM	Nc1cc(S(=O)(=O)c2ccc(F)cc2)cnc1-c1nnc(CO)o1 [Compound 9, {5-[3-amino-5-(4-fluorobenzene-1-sulfonyl)pyridin-2-yl]-1,3,4-oxadiazol-2-yl}methanol]
106.5%	14.9 nM	Nc1cc(S(=O)(=O)c2ccc(OC(F)(F)F)cc2)cnc1-c1nnc(C2CCCCC2)o1 [Compound 10, 2-(5-cyclohexyl-1,3,4-oxadiazol-2-yl)-5-[4-(trifluoromethoxy)benzene-1-sulfonyl]pyridin-3-amine]
109.82%	35.1 nM	CO[C@@H](c1ccccc1)c1nnc(-c2ncc(S(=O)(=O)c3ccc(OC(F)(F)F)cc3)cc2N)o1 [Compound 11, 2-{5-[(S)-methoxy(phenyl)methyl]-1,3,4-oxadiazol-2-yl}-5-[4-(trifluoromethoxy)benzene-1-sulfonyl]pyridin-3-amine]
100.38%	8.52 nM	Nc1cc(S(=O)(=O)c2ccc(OC(F)(F)F)cc2)cnc1-c1nnc(COCC2CC2)o1 [Compound 12, 2-{5-[(cyclopropylmethoxy)methyl]-1,3,4-oxadiazol-2-yl}-5-[4-(trifluoromethoxy)benzene-1-sulfonyl]pyridin-3-amine]
100.57%	327 nM	Nc1cc(S(=O)(=O)c2ccc(OC(F)(F)F)cc2)cnc1-c1nnc(COc2ccccc2)o1 [Compound 13, 2-[5-(phenoxymethyl)-1,3,4-oxadiazol-2-yl]-5-[4-(trifluoromethoxy)benzene-1-sulfonyl]pyridin-3-amine]
116.8%	67.9 nM	Nc1cc(S(=O)(=O)c2ccc(OC(F)(F)F)cc2)cnc1-c1nnc(COC2CCCC2)o1 [Compound 14, 2-{5-[(cyclopentyloxy)methyl]-1,3,4-oxadiazol-2-yl}-5-[4-(trifluoromethoxy)benzene-1-sulfonyl]pyridin-3-amine]
113.65%	6.94 nM	Nc1cc(S(=O)(=O)c2ccc(OC(F)(F)F)cc2)cnc1-c1nnc(COC(F)(F)F)o1 [Compound 15, 5-[4-(trifluoromethoxy)benzene-1-sulfonyl]-2-{5-[(trifluoromethoxy)methyl]-1,3,4-oxadiazol-2-yl}pyridin-3-amine]
110.75%	78.1 nM	Nc1cc(S(=O)(=O)c2ccc(OC(F)(F)F)cc2)cnc1-c1nnc(COC2CCOC2)o1 (stereo not drawn) [Compound 16, 2-(5-{[(oxolan-3-yl)oxy]methyl}-1,3,4-oxadiazol-2-yl)-5-[4-(trifluoromethoxy)benzene-1-sulfonyl]pyridin-3-amine]
117.3%	11.4 nM	COCCOCc1nnc(-c2ncc(S(=O)(=O)c3ccc(OC(F)(F)F)cc3)cc2N)s1 [Compound 17, 2-{5-[(2-methoxyethoxy)methyl]-1,3,4-thiadiazol-2-yl}-5-[4-(trifluoromethoxy)benzene-1-sulfonyl]pyridin-3-amine]
106.2%	9.09 nM	Nc1cc(S(=O)(=O)c2ccc(OC(F)(F)F)cc2)cnc1-c1nnc(CNC(=S)C2CC2)s1 [Compound 18, N-[(5-{3-amino-5-[4-(trifluoromethoxy)benzene-1-sulfonyl]pyridin-2-yl}-1,3,4-thiadiazol-2-yl)methyl]cyclopropanecarbothioamide]
97.54%	350 nM	CO[C@@H](c1ccccc1)c1nnc(-c2ncc(S(=O)(=O)c3ccc(OC(F)(F)F)cc3)cc2N)s1 [Compound 19, 2-{5-[(S)-methoxy(phenyl)methyl]-1,3,4-thiadiazol-2-yl}-5-[4-(trifluoromethoxy)benzene-1-sulfonyl]pyridin-3-amine]
97.45%	8.12 nM	C[C@@](O)(c1nnc(-c2ncc(S(=O)(=O)c3ccc(OC(F)(F)F)cc3)cc2N)s1)C(F)(F)F [Compound 20, (2S)-2-(5-{3-amino-5-[4-(trifluoromethoxy)benzene-1-sulfonyl]pyridin-2-yl}-1,3,4-thiadiazol-2-yl)-1,1,1-trifluoropropan-2-ol]
109.42%	8.54 nM	CO[C@H](C)c1nnc(-c2ncc(S(=O)(=O)c3ccc(OC(F)(F)F)cc3)cc2N)s1 [Compound 21, 2-{5-[(1R)-1-methoxyethyl]-1,3,4-thiadiazol-2-yl}-5-[4-(trifluoromethoxy)benzene-1-sulfonyl]pyridin-3-amine]
112.9%	15.2 nM	COC(C)c1nnc(-c2ncc(S(=O)(=O)c3ccc(OC(F)(F)F)cc3)cc2N)s1 (stereo not drawn) [Compound 22, 2-[5-(1-methoxyethyl)-1,3,4-thiadiazol-2-yl]-5-[4-(trifluoromethoxy)benzene-1-sulfonyl]pyridin-3-amine]
100.92%	37.1 nM	CO[C@@H](C)c1nnc(-c2ncc(S(=O)(=O)c3ccc(OC(F)(F)F)cc3)cc2N)s1 [Compound 23, 2-{5-[(1S)-1-methoxyethyl]-1,3,4-thiadiazol-2-yl}-5-[4-(trifluoromethoxy)benzene-1-sulfonyl]pyridin-3-amine]
100.82%	13.7 nM	Nc1cc(S(=O)(=O)c2ccc(OC(F)(F)F)cc2)cnc1-c1nnc(COCC2CC2)s1 [Compound 24, 2-{5-[(cyclopropylmethoxy)methyl]-1,3,4-thiadiazol-2-yl}-5-[4-(trifluoromethoxy)benzene-1-sulfonyl]pyridin-3-amine]
104.42%	4.4 nM	CCOCc1nnc(-c2ncc(S(=O)(=O)c3ccc(OC(F)(F)F)cc3)cc2N)s1 [Compound 25, 2-[5-(ethoxymethyl)-1,3,4-thiadiazol-2-yl]-5-[4-(trifluoromethoxy)benzene-1-sulfonyl]pyridin-3-amine]
101.69%	3.33 nM	COCc1nnc(-c2ncc(S(=O)(=O)c3ccc(OC(F)(F)F)cc3)cc2N)s1 [Compound 26, 2-[5-(methoxymethyl)-1,3,4-thiadiazol-2-yl]-5-[4-(trifluoromethoxy)benzene-1-sulfonyl]pyridin-3-amine]
96.45%	151 nM	Nc1cc(S(=O)(=O)c2ccc(OC(F)(F)F)cc2)cnc1-c1nnc(COc2cccnc2)s1 [Compound 27, 2-(5-{[(pyridin-3-yl)oxy]methyl}-1,3,4-thiadiazol-2-yl)-5-[4-(trifluoromethoxy)benzene-1-sulfonyl]pyridin-3-amine]
50.3%	–	Nc1cc(S(=O)(=O)c2ccc(OC(F)(F)F)cc2)cnc1-c1nnc(COC(F)(F)F)s1 [Compound 28, 5-[4-(trifluoromethoxy)benzene-1-sulfonyl]-2-{5-[(trifluoromethoxy)methyl]-1,3,4-thiadiazol-2-yl}pyridin-3-amine]
102.9%	16 nM	Nc1cc(S(=O)(=O)c2ccc(OC(F)(F)F)cc2)cnc1-c1nnc(COC2CCOC2)s1 (stereo not drawn) [Compound 29, 2-(5-{[(oxolan-3-yl)oxy]methyl}-1,3,4-thiadiazol-2-yl)-5-[4-(trifluoromethoxy)benzene-1-sulfonyl]pyridin-3-amine]
94.98%	3.61 nM	Nc1cc(S(=O)(=O)c2ccc(OC(F)(F)F)cc2)cnc1-c1nnc(COC(F)F)s1 [Compound 30, 2-{5-[(difluoromethoxy)methyl]-1,3,4-thiadiazol-2-yl}-5-[4-(trifluoromethoxy)benzene-1-sulfonyl]pyridin-3-amine]
102.85%	36.9 nM	Nc1cc(S(=O)(=O)c2ccc(OC(F)(F)F)cc2)cnc1-c1nnc(C[C@@H]2CCCO2)s1 [Compound 31, 2-(5-{[(2S)-oxolan-2-yl]methyl}-1,3,4-thiadiazol-2-yl)-5-[4-(trifluoromethoxy)benzene-1-sulfonyl]pyridin-3-amine]
